In one experiment the test system is MCF-7/HER2-18 cells. Description: Tamoxifen and/or NDGA growth inhibition of MCF-7/HER2-18 cells (CyQuant). It counts as cell-based. The settings on record: Homo sapiens. The procedure:
Cells were estrogen-starved for three days in DMEM containing 10% charcoal-[…]-stripped FCS (CDSS) prior to their plating in 96 well plates. Cells were plated in 100 μl of the same media, allowed to adhere overnight, and then were switched to DMEM+10% CDSS supplemented with 100 pM estrogen. […] The media and inhibitors were refreshed on day 3, the cultures were harvested on day 6, and a CyQuant assay was performed as described above.

The target in a further experiment is T1, HER2/neu (Rattus norvegicus, UniProt P06494).
T1 construct: expressed in transfected cells; host or cells: MCNeuA mouse mammary carcinoma cells (MMTV/neu transgene), in culture or grown as tumours in neuTg mice
T1 sequence (P06494 23-1257): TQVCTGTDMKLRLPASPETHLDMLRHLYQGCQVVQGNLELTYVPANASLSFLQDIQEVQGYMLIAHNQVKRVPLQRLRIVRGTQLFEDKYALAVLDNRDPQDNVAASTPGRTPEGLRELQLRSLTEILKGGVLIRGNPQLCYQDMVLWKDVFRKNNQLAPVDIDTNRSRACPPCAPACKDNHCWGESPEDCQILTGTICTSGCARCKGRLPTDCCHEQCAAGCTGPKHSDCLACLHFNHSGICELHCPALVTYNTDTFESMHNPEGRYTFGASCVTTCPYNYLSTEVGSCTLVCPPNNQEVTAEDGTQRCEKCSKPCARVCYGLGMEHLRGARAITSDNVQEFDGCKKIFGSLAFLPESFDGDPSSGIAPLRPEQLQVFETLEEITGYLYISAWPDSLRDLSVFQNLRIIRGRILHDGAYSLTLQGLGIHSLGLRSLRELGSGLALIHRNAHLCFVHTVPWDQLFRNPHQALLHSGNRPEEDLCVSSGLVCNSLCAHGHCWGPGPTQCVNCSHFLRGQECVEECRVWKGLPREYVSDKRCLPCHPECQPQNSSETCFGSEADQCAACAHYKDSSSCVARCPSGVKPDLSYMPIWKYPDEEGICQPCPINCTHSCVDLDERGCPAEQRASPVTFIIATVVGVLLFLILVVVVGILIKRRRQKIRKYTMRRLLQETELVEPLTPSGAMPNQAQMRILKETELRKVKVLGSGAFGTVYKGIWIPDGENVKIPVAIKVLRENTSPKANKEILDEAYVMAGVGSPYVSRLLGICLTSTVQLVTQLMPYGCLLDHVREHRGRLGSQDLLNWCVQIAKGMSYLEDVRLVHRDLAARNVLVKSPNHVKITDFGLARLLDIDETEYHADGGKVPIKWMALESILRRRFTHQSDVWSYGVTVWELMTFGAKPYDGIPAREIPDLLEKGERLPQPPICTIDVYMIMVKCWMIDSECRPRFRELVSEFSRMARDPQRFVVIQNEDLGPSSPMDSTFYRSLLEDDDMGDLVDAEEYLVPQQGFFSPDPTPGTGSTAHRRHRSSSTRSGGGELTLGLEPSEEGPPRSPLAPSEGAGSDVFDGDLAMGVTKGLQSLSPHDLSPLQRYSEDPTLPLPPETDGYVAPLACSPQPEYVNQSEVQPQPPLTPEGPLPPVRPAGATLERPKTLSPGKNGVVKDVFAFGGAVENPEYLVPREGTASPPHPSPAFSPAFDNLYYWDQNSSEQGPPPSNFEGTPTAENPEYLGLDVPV
As to the kind of experiment: HER2/neu phosphorylation in excised MCNeuA tumors (western blot). In kind it is in vivo, mouse. Conditions: 37.5 mg/kg i.p. three times a week, 16 hours after final dose, vs vehicle. The procedure:
Tumors were homogenized in 50 mM HEPES, pH 7.6, 150 mM NaCl, 1 mM PMSF, 2 μM leupeptin, 2 μM Pepstatin A, and 2 mM Na3VO4, and solubilized by the addition of 1% Triton x-100. Soluble lysates were prepared as described for cell culture studies. Tyrosine phosphorylation of IGF-1R was determined by ELISA as described for MCF-7 cells. Phosphorylation of HER2/neu was determined by western blot employing the phospho-specific antibody as in the cell culture studies. The degree of phosphorylation for each receptor was normalized to total receptor protein content in the tumor samples as determined by western blotting with antibodies against the human IGF-1R and the rodent HER2/neu.
In general terms: Immunoblotting shows a protein as a band on a membrane.

The subject of another experiment is MCNeuA tumor cells. As to the kind of experiment: Growth of MCNeuA tumors in neuTg mice. In kind it is in vivo, mouse. The settings on record: combined oral 100 mg/kg and i.p. 37.5 mg/kg groups, from 21 days post-implantation. An excerpt:
All animal studies complied with protocols approved by of the Institutional Animal Care and Use Committee of the University of California, San Francisco. Our syngeneic model studies utilized the FVB/N-TgN(MMTVneu)202 mouse strain developed by Muller and colleagues (Guy CT, Webster MA, Schaller M, Parsons TJ, Cardiff RD, Muller WJ: Expression of the neu protooncogene in the mammary epithelium of transgenic mice induces metastatic disease. Proc Natl Acad Sci USA 89:10578-10582, 1992). This strain, denoted hereafter as neuTg, expresses the wild-type rat neu proto-oncogene (a homologue of human HER2) under the control of the mouse mammary tumor virus (MMTV) long terminal repeat (LTR) on an FVB mouse background. The MCNeuA mammary carcinoma cell line employed in these studies was derived from a spontaneously arising tumor in a neuTg female mouse (Campbell MJ, Wollish WS, Lobo […] LJ: Epithelial and fibroblast cell lines derived from a spontaneous mammary carcinoma in a MMTV/neu transgenic mouse. In Vitro Cell Dev Biol Anim 38:326-333, 2002). These cells are tumorigenic when transplanted back into neuTg mice. […] This solution was kept warm at 37° C. until given to mice by i.p. injection. […] Tumor growth was measured at the time of drug delivery on alternate treatment days with calipers and volume calculated using the equation: (length×width^2)*(π/6). […]

The target of another experiment is T2, IGF-IR (Homo sapiens, UniProt P08069).
T2 construct: endogenous in cells; host or cells: SH-SY5Y and SHEP
T2 sequence (P08069 31-1367): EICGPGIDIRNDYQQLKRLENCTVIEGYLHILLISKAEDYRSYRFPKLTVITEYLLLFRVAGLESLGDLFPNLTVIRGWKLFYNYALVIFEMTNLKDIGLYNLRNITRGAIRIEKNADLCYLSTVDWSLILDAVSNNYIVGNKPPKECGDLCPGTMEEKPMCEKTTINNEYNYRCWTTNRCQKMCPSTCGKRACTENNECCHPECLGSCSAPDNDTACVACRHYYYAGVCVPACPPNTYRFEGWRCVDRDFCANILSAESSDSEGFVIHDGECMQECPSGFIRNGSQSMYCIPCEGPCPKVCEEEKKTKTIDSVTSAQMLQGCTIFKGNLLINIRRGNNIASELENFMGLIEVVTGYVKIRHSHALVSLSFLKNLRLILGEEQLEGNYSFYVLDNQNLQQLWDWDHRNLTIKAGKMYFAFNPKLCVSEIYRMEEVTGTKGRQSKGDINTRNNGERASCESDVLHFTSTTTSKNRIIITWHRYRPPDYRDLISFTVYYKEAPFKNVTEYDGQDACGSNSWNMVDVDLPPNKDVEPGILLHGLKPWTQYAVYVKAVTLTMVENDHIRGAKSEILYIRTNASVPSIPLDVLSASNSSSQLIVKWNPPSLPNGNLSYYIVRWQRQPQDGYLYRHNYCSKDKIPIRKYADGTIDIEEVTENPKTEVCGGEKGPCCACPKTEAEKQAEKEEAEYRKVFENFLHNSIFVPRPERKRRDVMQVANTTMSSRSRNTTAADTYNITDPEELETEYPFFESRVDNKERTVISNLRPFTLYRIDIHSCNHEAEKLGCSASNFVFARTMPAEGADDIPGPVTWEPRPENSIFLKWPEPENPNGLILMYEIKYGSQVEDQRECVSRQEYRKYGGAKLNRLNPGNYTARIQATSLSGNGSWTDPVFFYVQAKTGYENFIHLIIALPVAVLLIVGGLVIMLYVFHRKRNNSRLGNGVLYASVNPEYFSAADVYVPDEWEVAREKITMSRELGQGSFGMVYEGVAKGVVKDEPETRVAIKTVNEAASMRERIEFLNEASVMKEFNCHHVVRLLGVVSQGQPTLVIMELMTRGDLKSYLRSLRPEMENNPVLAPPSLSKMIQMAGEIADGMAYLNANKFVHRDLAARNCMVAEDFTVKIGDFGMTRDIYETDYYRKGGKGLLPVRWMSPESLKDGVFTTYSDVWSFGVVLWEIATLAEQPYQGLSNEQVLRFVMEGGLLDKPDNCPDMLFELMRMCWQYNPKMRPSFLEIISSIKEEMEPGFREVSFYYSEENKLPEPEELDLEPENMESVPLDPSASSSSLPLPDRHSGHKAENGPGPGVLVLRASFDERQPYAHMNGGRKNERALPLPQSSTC
Description: IGF-IR phosphorylation ELISA in neuroblastoma cells. In kind it is cell-based. Conditions: SHEP and SH-SY5Y cells, 60 μM NDGA 1 h, 1 nM IGF-I 10 min. As to the method:
IGF-1R phlosphorylation ELISA. SH-SY5Y and SHEP cells were grown to 80% confluence in DMEM/10% calf serum, then serum-starved for 4 h. […] Some cultures were then treated with 1 nM IGF-I for 10 min. The medium was removed, cultures rinsed 3× in cold PBS, and lysis buffer (120 mM HEPES, 300 mM NaCl, 2 mM sodium orthovanadate, and 1 mM phenylmethylsufonylfluoride (PMSF)) was added. Cultures were rocked in lysis buffer at 4° C. for 1 h. 96-well plates were coated with αIR-3 antibody in 50 mM NaHCO3, pH 9.0, for 2 h at RT. Plates were rinsed 3× in tris-buffered saline +0.1% Tween (TBST), then blocked with SuperBlock (Pierce, Rockford, Ill.) for 30 min at RT. Each well of the ELISA plate received 30 μg of lysate protein from the cell cultures, followed by 24 h incubation at 4° C. Plates were rinsed 5× with TBST, and HRP-conjugated anti-phosphotyrosine antibody was added (1:2000, diluted in 120 mM HEPES, 300 mM NaCl, 2 mM sodium orthovanadate. and 1 mM PMSF. 1% bovine serum albumin, 1 mg/ml bacitracin, and 0.5% Tween-20) for 2 h at RT. Plates were again rinsed 5× in TBST, and TMB (Pierce) was added until blue color was sufficiently developed. […] Each lysate was run in triplicate, and the experiment was repeated 3 times.
(In general: An ELISA detects its analyte on a solid surface through an enzyme-linked reagent.)

For orientation: inhibition means the percentage by which the read-out fell short of the control. A lower inhibition goes with a response near the control.

In the experiment on MCF-7/HER2-18 cells, `CC(Cc1ccc(O)c(O)c1)C(C)Cc1ccc(O)c(O)c1` (centres unmarked) [NDGA, nordihydroguaiaretic acid] had an inhibition at 10 µM of 9% and an inhibition at 15 µM of 38%. At HER2/neu, the “HER2/neu receptor autophosphorylation in tumors” value is on record as “reduced”. For the same compound, the tumor growth entry in the experiment with MCNeuA tumor cells is “significantly reduced”. In addition, the “IGF-I stimulated IGF-IR tyrosine phosphorylation” value on IGF-IR is “inhibited”.
